Reference: ChEMBL document CHEMBL1147616, “DNA binding of a short lexitropsin” (Bioorg Med Chem Lett, 2004)

Tested on: Nucleic Acid
Experiment: Compound was evaluated for its binding activity to the DNA AT-rich sites
Format: nucleic-acid assay

Row | SMILES | Binding activity [µM]
1 | CC(C)n1cc(NC(=O)c2cc(NC=O)cn2C)cc1C(=O)Nc1cc(C(=O)NCCCN(C)C)n(C)c1 | 0.3
2 | CN(C)CCCNC(=O)c1cc(NC(=O)c2cc(NC(=O)c3cc(NC=O)cn3C)cn2C)cn1C | 3
